A word on the IC50: it is the concentration that gives 50% inhibition. The term EC50 denotes the concentration giving half of the maximal effect. High values mean lower potency in that assay, low ones higher potency in that assay. What is called Kd is the equilibrium constant for the complex coming apart. A low value points to higher affinity.

This note sets out measurements from ChEMBL document CHEMBL1152149 (Bioorg Med Chem Lett, 2008).

The target in data set [1] is Glutamate NMDA receptor. Description: Inhibition of NMDA receptor in rat cerebellar granule neurons assessed as glutamate-induced intracellular calcium increase. The format is cell-based. In general terms: Calcium flux is commonly read through the fluorescence of an indicator in the cells.
The next data set concerns H2N2 subtype. Type of data set: functional, organism-based, Influenza A virus (A/Japan/305/1957(H2N2)). Particulars: Influenza A virus, MDCK.
Data set [2] is described as follows: Cytotoxicity against MDCK cells assessed as detectable alteration of normal cell morphology. The format is cell-based, Canis lupus familiaris. The note with it: dog, read-out: Activity.
Data set [3] addresses Glutamate NMDA receptor. The data set can be described thus: Inhibition of NMDA receptor in rat cerebellar granule neurons assessed as NMDA-induced intracellular calcium increase. The format is cell-based.
In a further data set the test system is Influenza B virus. The format is functional, organism-based. Particulars: B/Hong Kong/05/1972, MDCK.
Data set [4] is described as follows: Binding affinity to influenza A virus A/chicken/Germany/27 H7N7 weybridge strain M2 ion channel expressed in Escherichia coli.

Where a name gives a salt, the structure may show the parent alone. Activity calls are given as the source filed them. No cut-off for these calls is given here. Some results are limits rather than exact numbers.

Take `NC1C2CC3CC(C2)CC1C3` (centres undefined): the IC50 on Glutamate NMDA receptor [1] was over 350 µM; at Glutamate NMDA receptor [3] it was 219 µM. This compound showed an EC50 in the data set on H2N2 subtype of 2800 nM. In addition, in data set [2], the MCC was over 1.33 mM. For the same compound, in the data set on Influenza B virus, the outcome was inactive. This compound also had a Kd in data set [4] of 2360 nM.
Consider `CCC1(N)C2CC3CC(C2)CC1C3` (centres undefined), for which, in the data set with H2N2 subtype, the EC50 was under 1900 nM. The MCC in data set [2] was over 1.16 mM. Besides, in the data set with Influenza B virus, the outcome was inactive. Also, in data set [4], the Kd came to 6700 nM.
For `C1CNC2(C1)C1CC3CC(C1)CC2C3` (centres undefined), the IC50 on Glutamate NMDA receptor [1] turned out to be 314 µM; at Glutamate NMDA receptor [3], 50.6 µM. In the data set on H2N2 subtype, this compound registered an EC50 of 1800 nM. Further, the MCC in data set [2] was over 1.1 mM. For the same compound, the outcome in the data set on Influenza B virus was inactive. In data set [4], this compound came in with a Kd of 1160 nM.
As to `NC12CC3CC(CC(C3)C1)C2` [AMANTADINE HYDROCHLORIDE], in the data set on H2N2 subtype, the EC50 turned out to be 1100 nM. Moreover, the MCC in data set [2] was over 1.33 mM. For the same compound, the result in the data set on Influenza B virus was inactive. In data set [4], this compound registered a Kd of 320 nM.
Take `CCCC1(O)C2CC3CC(C2)CC1C3` (centres undefined): the IC50 on Glutamate NMDA receptor [1] and at Glutamate NMDA receptor [3] was over 350 µM each time. Also, the EC50 in the data set with H2N2 subtype was under 2100 nM. Further, the MCC in data set [2] was over 1.29 mM. Moreover, the result in the data set on Influenza B virus was inactive.
Turning to `C1CCC2(NC1)C1CC3CC(C1)CC2C3` (centres undefined), the IC50 at Glutamate NMDA receptor [1] is 239 µM; at Glutamate NMDA receptor [3] it was 19 µM. Besides, the EC50 in the data set on H2N2 subtype amounted to 1000 nM; in the data set with Influenza B virus, 241 µM. Moreover, the MCC in data set [2] was over 1.03 mM. Further, the Kd in data set [4] was found to be 390 nM.
Turning to `CCCC1(N)C2CC3CC(C2)CC1C3` (centres undefined), the IC50 at Glutamate NMDA receptor [1] was 258 µM; at Glutamate NMDA receptor [3], 61.3 µM. The compound further yielded an EC50 in the data set with H2N2 subtype of under 1700 nM. The MCC in data set [2] is over 1.09 mM. Moreover, in the data set on Influenza B virus, the result was inactive. Also, in data set [4], the Kd was 8710 nM.
Regarding `CC1(O)C2CC3CC(C2)CC1C3` (centres undefined), the IC50 on Glutamate NMDA receptor [1] and on Glutamate NMDA receptor [3] was over 350 µM each time. The concentration giving a half-maximal response (EC50) in the data set with H2N2 subtype was 3000 nM. Also, the MCC in data set [2] was over 1.51 mM. Moreover, the outcome with Influenza B virus was inactive.
As for `CC1(F)C2CC3CC(C2)CC1C3` (centres undefined), the Kd in data set [4] was over 26000 nM.
Regarding `CC1(N)C2CC3CC(C2)CC1C3` (centres undefined), the 50% inhibitory concentration (IC50) came out at 306 µM at Glutamate NMDA receptor [1] and 64.4 µM on Glutamate NMDA receptor [3]. Also, the EC50 with H2N2 subtype was 3500 nM. Further, the MCC in data set [2] was over 1.24 mM. Moreover, the outcome in the data set with Influenza B virus was inactive. In data set [4], this compound gave a Kd of 3600 nM.
